Results: PMC9395446, “First-in-human phase 1/1b study to evaluate sitravatinib in patients with advanced solid tumors” (Investigational New Drugs, 2022)

Assay: Safety in phase 1/1b study (DLTs, TRAEs, TEAEs; CTCAE v4.03)
Assay type: in vivo, human
Description: Safety assessments included evaluation of DLTs, AEs, physical examinations, vital sign measurements, electrocardiogram recordings and laboratory tests.
A DLT was defined as a grade ≥ 4 hematologic abnormality lasting ≥ 4 days; grade 3 thrombocytopenia with clinically significant bleeding; febrile neutropenia; clinically significant grade ≥ 3 non-hematologic AEs not related to underlying malignancy; intolerable grade 2 AEs; or toxicity resulting in an inability to deliver 80% of the dose during the first treatment cycle.
The safety population included all patients who received ≥ 1 dose of sitravatinib. […] The PK evaluable population included all patients with sufficient concentration-time data for PK parameter evaluation. The modified intent-to-treat (mITT) population included all phase 1b patients who received ≥ 1 dose of study drug.

COCCNCc1ccc(-c2cc3nccc(Oc4ccc(NC(=O)C5(C(=O)Nc6ccc(F)cc6)CC5)cc4F)c3s2)nc1 [sitravatinib, Sitravatinib]
AST increased TRAE, any grade (Overall): 36 (18.7) n (%)
AST increased TRAE, grade ≥3 (Overall): 2 (1.0) n (%)
Abdominal pain TEAE, any grade (Overall): 44 (22.8) n (%)
Abdominal pain TEAE, grade ≥3 (Overall): 6 (3.1) n (%)
Abdominal pain TRAE, any grade (Overall): 22 (11.4) n (%)
Abdominal pain TRAE, grade ≥3 (Overall): 0 n (%)
Anemia TEAE, any grade (Overall): 38 (19.7) n (%)
Anemia TEAE, grade ≥3 (Overall): 12 (6.2) n (%)
Any TEAE (Overall): 190 (98.4) n (%)
Any TRAE (Overall): 174 (90.2) n (%)
Asthenia TEAE, any grade (Overall): 20 (10.4) n (%)
Asthenia TEAE, grade ≥3 (Overall): 0 n (%)
Back pain TEAE, any grade (Overall): 32 (16.6) n (%)
Back pain TEAE, grade ≥3 (Overall): 3 (1.6) n (%)
Blood and lymphatic system disorders TEAE, any grade (Overall): 50 (25.9) n (%)
Blood and lymphatic system disorders TEAE, grade ≥3 (Overall): 20 (10.4) n (%)
Blood creatinine increased TEAE, any grade (Overall): 21 (10.9) n (%)
Blood creatinine increased TEAE, grade ≥3 (Overall): 0 n (%)
Cardiac disorders TEAE, any grade (Overall): 24 (12.4) n (%)
Cardiac disorders TEAE, grade ≥3 (Overall): 10 (5.2) n (%)
Constipation TEAE, any grade (Overall): 66 (34.2) n (%)
Constipation TEAE, grade ≥3 (Overall): 0 n (%)
Constipation TRAE, any grade (Overall): 22 (11.4) n (%)
Constipation TRAE, grade ≥3 (Overall): 0 n (%)
Cough TEAE, any grade (Overall): 34 (17.6) n (%)
Cough TEAE, grade ≥3 (Overall): 0 n (%)
Decreased appetite TEAE, any grade (Overall): 74 (38.3) n (%)
Decreased appetite TEAE, grade ≥3 (Overall): 4 (2.1) n (%)
Decreased appetite TRAE, any grade (Overall): 51 (26.4) n (%)
Decreased appetite TRAE, grade ≥3 (Overall): 2 (1.0) n (%)
Dehydration TEAE, any grade (Overall): 36 (18.7) n (%)
Dehydration TEAE, grade ≥3 (Overall): 5 (2.6) n (%)
Diarrhea TEAE, any grade (Overall): 116 (60.1) n (%)
Diarrhea TEAE, grade ≥3 (Overall): 25 (13.0) n (%)
Diarrhea TRAE, any grade (Overall): 98 (50.8) n (%)
Diarrhea TRAE, grade ≥3 (Overall): 20 (10.4) n (%)
Dizziness TEAE, any grade (Overall): 34 (17.6) n (%)
Dizziness TEAE, grade ≥3 (Overall): 0 n (%)
Dizziness TRAE, any grade (Overall): 20 (10.4) n (%)
Dizziness TRAE, grade ≥3 (Overall): 0 n (%)
Dry mouth TEAE, any grade (Overall): 28 (14.5) n (%)
Dry mouth TEAE, grade ≥3 (Overall): 0 n (%)
Dry mouth TRAE, any grade (Overall): 21 (10.9) n (%)
Dry mouth TRAE, grade ≥3 (Overall): 0 n (%)
Dysphonia TEAE, any grade (Overall): 47 (24.4) n (%)
Dysphonia TEAE, grade ≥3 (Overall): 0 n (%)
Dysphonia TRAE, any grade (Overall): 27 (14.0) n (%)
Dysphonia TRAE, grade ≥3 (Overall): 0 n (%)
Dyspnea TEAE, any grade (Overall): 31 (16.1) n (%)
Dyspnea TEAE, grade ≥3 (Overall): 6 (3.1) n (%)
Edema peripheral TEAE, any grade (Overall): 29 (15.0) n (%)
Edema peripheral TEAE, grade ≥3 (Overall): 1 (0.5) n (%)
Endocrine disorders TEAE, any grade (Overall): 53 (27.5) n (%)
Endocrine disorders TEAE, grade ≥3 (Overall): 2 (1.0) n (%)
Fatigue TEAE, any grade (Overall): 98 (50.8) n (%)
Fatigue TEAE, grade ≥3 (Overall): 19 (9.8) n (%)
Fatigue TRAE, any grade (Overall): 83 (43.0) n (%)
Fatigue TRAE, grade ≥3 (Overall): 14 (7.3) n (%)
Gastrointestinal disorders TEAE, any grade (Overall): 167 (86.5) n (%)
Gastrointestinal disorders TEAE, grade ≥3 (Overall): 49 (25.4) n (%)
General disorders and administration site conditions TEAE, any grade (Overall): 131 (67.9) n (%)
General disorders and administration site conditions TEAE, grade ≥3 (Overall): 23 (11.9) n (%)
Headache TEAE, any grade (Overall): 40 (20.7) n (%)
Headache TEAE, grade ≥3 (Overall): 2 (1.0) n (%)
Hypertension TEAE, any grade (Overall): 88 (45.6) n (%)
Hypertension TEAE, grade ≥3 (Overall): 47 (24.4) n (%)
Hypertension TRAE, any grade (Overall): 78 (40.4) n (%)
Hypertension TRAE, grade ≥3 (Overall): 40 (20.7) n (%)
Hypokalemia TEAE, any grade (Overall): 20 (10.4) n (%)
Hypokalemia TEAE, grade ≥3 (Overall): 3 (1.6) n (%)
Hypomagnesemia TEAE, any grade (Overall): 24 (12.4) n (%)
Hypomagnesemia TEAE, grade ≥3 (Overall): 0 n (%)
Hyponatremia TEAE, any grade (Overall): 25 (13.0) n (%)
Hyponatremia TEAE, grade ≥3 (Overall): 11 (5.7) n (%)
Hypophosphatemia TEAE, any grade (Overall): 20 (10.4) n (%)
Hypophosphatemia TEAE, grade ≥3 (Overall): 11 (5.7) n (%)
Hypothyroidism TEAE, any grade (Overall): 47 (24.4) n (%)
Hypothyroidism TEAE, grade ≥3 (Overall): 0 n (%)
Hypothyroidism TRAE, any grade (Overall): 33 (17.1) n (%)
Hypothyroidism TRAE, grade ≥3 (Overall): 0 n (%)
Infections and infestations TEAE, any grade (Overall): 74 (38.3) n (%)
Infections and infestations TEAE, grade ≥3 (Overall): 24 (12.4) n (%)
Injury, poisoning, procedural complications TEAE, any grade (Overall): 35 (18.1) n (%)
Injury, poisoning, procedural complications TEAE, grade ≥3 (Overall): 2 (1.0) n (%)
Investigations TEAE, any grade (Overall): 116 (60.1) n (%)
Investigations TEAE, grade ≥3 (Overall): 36 (18.7) n (%)
Lipase increased TEAE, any grade (Overall): 26 (13.5) n (%)
Lipase increased TEAE, grade ≥3 (Overall): 14 (7.3) n (%)
Metabolism and nutrition disorders TEAE, any grade (Overall): 130 (67.4) n (%)
Metabolism and nutrition disorders TEAE, grade ≥3 (Overall): 41 (21.2) n (%)
Musculoskeletal and connective tissue disorders TEAE, any grade (Overall): 103 (53.4) n (%)
Musculoskeletal and connective tissue disorders TEAE, grade ≥3 (Overall): 10 (5.2) n (%)
Nausea TEAE, any grade (Overall): 81 (42.0) n (%)
Nausea TEAE, grade ≥3 (Overall): 8 (4.1) n (%)
Nausea TRAE, any grade (Overall): 58 (30.1) n (%)
Nausea TRAE, grade ≥3 (Overall): 5 (2.6) n (%)
Neoplasms benign, malignant, unspecified TEAE, any grade (Overall): 24 (12.4) n (%)
Neoplasms benign, malignant, unspecified TEAE, grade ≥3 (Overall): 19 (9.8) n (%)
Nervous system disorders TEAE, any grade (Overall): 92 (47.7) n (%)
Nervous system disorders TEAE, grade ≥3 (Overall): 8 (4.1) n (%)
PPE syndrome TEAE, any grade (Overall): 41 (21.2) n (%)
PPE syndrome TEAE, grade ≥3 (Overall): 11 (5.7) n (%)
PPE syndrome TRAE, any grade (Overall): 39 (20.2) n (%)
PPE syndrome TRAE, grade ≥3 (Overall): 11 (5.7) n (%)
Pain in extremity TEAE, any grade (Overall): 21 (10.9) n (%)
Pain in extremity TEAE, grade ≥3 (Overall): 2 (1.0) n (%)
Proteinuria TEAE, any grade (Overall): 26 (13.5) n (%)
Proteinuria TEAE, grade ≥3 (Overall): 2 (1.0) n (%)
Proteinuria TRAE, any grade (Overall): 22 (11.4) n (%)
Proteinuria TRAE, grade ≥3 (Overall): 2 (1.0) n (%)
Psychiatric disorders TEAE, any grade (Overall): 39 (20.2) n (%)
Psychiatric disorders TEAE, grade ≥3 (Overall): 4 (2.1) n (%)
Rash TEAE, any grade (Overall): 26 (13.5) n (%)
Rash TEAE, grade ≥3 (Overall): 2 (1.0) n (%)
Rash TRAE, any grade (Overall): 21 (10.9) n (%)
Rash TRAE, grade ≥3 (Overall): 2 (1.0) n (%)
Renal and urinary disorders TEAE, any grade (Overall): 51 (26.4) n (%)
Renal and urinary disorders TEAE, grade ≥3 (Overall): 6 (3.1) n (%)
Respiratory, thoracic and mediastinal disorders TEAE, any grade (Overall): 121 (62.7) n (%)
Respiratory, thoracic and mediastinal disorders TEAE, grade ≥3 (Overall): 21 (10.9) n (%)
Serious TEAE (Overall): 79 (40.9) n (%)
Serious TRAE (Overall): 30 (15.5) n (%)
Skin and subcutaneous tissue disorders TEAE, any grade (Overall): 109 (56.5) n (%)
Skin and subcutaneous tissue disorders TEAE, grade ≥3 (Overall): 15 (7.8) n (%)
Stomatitis TEAE, any grade (Overall): 29 (15.0) n (%)
Stomatitis TEAE, grade ≥3 (Overall): 2 (1.0) n (%)
Stomatitis TRAE, any grade (Overall): 28 (14.5) n (%)
Stomatitis TRAE, grade ≥3 (Overall): 2 (1.0) n (%)
TEAE grade ≥3 (Overall): 145 (75.1) n (%)
TEAE leading to death (Overall): 21 (10.9) n (%)
TEAE leading to discontinuation (Overall): 41 (21.2) n (%)
TEAE leading to treatment modification (Overall): 133 (68.9) n (%)
TRAE grade ≥3 (Overall): 103 (53.4) n (%)
TRAE leading to death (Overall): 1 (0.5) n (%)
TRAE leading to discontinuation (Overall): 26 (13.5) n (%)
TRAE leading to treatment modification (Overall): 120 (62.2) n (%)
UTI TEAE, any grade (Overall): 23 (11.9) n (%)
UTI TEAE, grade ≥3 (Overall): 6 (3.1) n (%)
Vascular disorders TEAE, any grade (Overall): 106 (54.9) n (%)
Vascular disorders TEAE, grade ≥3 (Overall): 50 (25.9) n (%)
Vomiting TEAE, any grade (Overall): 61 (31.6) n (%)
Vomiting TEAE, grade ≥3 (Overall): 11 (5.7) n (%)
Vomiting TRAE, any grade (Overall): 46 (23.8) n (%)
Vomiting TRAE, grade ≥3 (Overall): 5 (2.6) n (%)
Weight decreased TEAE, any grade (Overall): 42 (21.8) n (%)
Weight decreased TEAE, grade ≥3 (Overall): 3 (1.6) n (%)
Weight decreased TRAE, any grade (Overall): 27 (14.0) n (%)
Weight decreased TRAE, grade ≥3 (Overall): 2 (1.0) n (%)
ALT increased TEAE, any grade (Phase 1): 4 (12.5) n (%)
ALT increased TEAE, grade ≥3 (Phase 1): 1 (3.1) n (%)
ALT increased TRAE, any grade (Phase 1): 2 (6.3) n (%)
ALT increased TRAE, grade ≥3 (Phase 1): 0 n (%)
AST increased TEAE, any grade (Phase 1): 5 (15.6) n (%)
AST increased TEAE, grade ≥3 (Phase 1): 1 (3.1) n (%)
AST increased TRAE, any grade (Phase 1): 2 (6.3) n (%)
AST increased TRAE, grade ≥3 (Phase 1): 0 n (%)
Abdominal pain TEAE, any grade (Phase 1): 4 (12.5) n (%)
Abdominal pain TEAE, grade ≥3 (Phase 1): 1 (3.1) n (%)
